Read-outs that look alike come from different tables or passages of the source. Where no end group is shown, it is not given here.
Legend:
S. aureus USA300 LAC = assay: microbe, parasite or virus in culture; format: cell-based, Staphylococcus aureus; conditions: for MIC: read-out: Antimicrobial activity (MIC)
Description: (§1) The following resistant bacterial clinical strains were used in this study: S. aureus USA300 LAC, S. epidermidis 1457, E. coli E423-17, P. aeruginosa E411-17, K. pneumoniae E406-17, and A. baumannii B28-16. While the S. aureus USA300 strain is methicillin-resistant, most of the Gram-negative bacteria contain extended-spectrum beta-lactamase and are resistant to beta-lactam antibiotics. Peptide activity against bacteria was tested using an established lab protocol (Mishra, et al. (2017) Acta Biomater., 49:316-328). In brief, a peptide concentration gradient with twofold dilution was made in the 96-well polystyrene microplate at 10 μL per well. Bacteria were grown to the exponential phase (i.e., optical density at 600 nm≈0.5), diluted to ˜10^5 CFU/mL in different percentages of MHB, TSB, or LB, and partitioned into the 96-well microplate at 90 μL per well. […] They were diluted with autoclaved distilled water to obtain different percentages. The microplates were incubated at 37° C. overnight and read on a ChroMate™ 4300 microplate reader at 600 nm (GMI, Ramsey, MN). The peptide concentration in the wells without bacterial growth is the MIC. As is the convention, MIC values were represented as ranges.
(§2) For pH effects on peptide activity, the pH of the medium was adjusted to a targeted pH for the autoclave and then remeasured at room temperature. For salt and serum effects on peptide activity, stock NaCl solution or human serum was added to the media.
(§3) Peptide activity against bacteria were tested using the CLSI standard procedure with minor modifications (Clinical and Laboratory Standards Institute (2018) Performance standards for antimicrobial susceptibility testing, 9th ed.; Mishra, et al. (2019) Proc. Natl. Acad. Sci., 116(27):13517-13522). In brief, a peptide concentration gradient with twofold dilution was made in the 96-well polystyrene microplate at 10 μL per well. Bacteria were grown to the exponential phase (i.e., optical density at 600 nm≈0.5), diluted to ˜10^5 CFU/mL in MHB, and partitioned into the 96-well microplate at 90 μL per well. The microplates were incubated at 37° C. overnight and read on a ChroMate® 4300 Microplate Reader at 600 nm (GMI, Ramsey, MN). The peptide concentration in the wells without bacterial growth is the minimal inhibitory concentration (MIC). As the convention, MIC values were represented as ranges.
(§4) For pH effects on peptide activity, the pH of the medium was adjusted to a targeted pH for autoclave and then remeasured at room temperature. For salt and serum effects on peptide activity, stock NaCl solution or human serum were added to the media.

E. coli E423-17 = format: cell-based, Escherichia coli
Description: as §1, §2, §3, §4

K. pneumoniae E406-17 = format: cell-based, Klebsiella pneumoniae
Description: as §1, §3

A. baumannii B28-16 = format: cell-based, Acinetobacter baumannii; conditions: B28-16
Description: as §1, §3

P. aeruginosa E411-17 = assay: microbe, parasite or virus in culture; format: cell-based, Pseudomonas aeruginosa; conditions: E411-17
Description: as §1, §2, §3, §4

E. coli = conditions: data from the antimicrobial peptide database; cited from earlier work

Q: Which results are given for “KRIVQRIKDFLR-NH2 (C-terminus assumed) [KR-12]”?
A: Antimicrobial activity (MIC) (S. aureus USA300 LAC; MHB 12.5%): active; Antimicrobial activity (MIC) (S. aureus USA300 LAC; MHB 100%): did not display any activity; Antimicrobial activity (MIC) (S. aureus USA300 LAC; USA300): 4 to 8 µM; MIC (S. aureus USA300 LAC; USA300): 4 µM; Antimicrobial activity (MIC) (E. coli E423-17; MHB 100%): active

Q: With KRIWQRIK-NH2 [W539] as the substance, how does the “Activity (MIC) S. aureus” value (S. aureus USA300 LAC; USA300) read?
A: >32 µM

Q: What about the “Activity (MIC) E.coli” value (E. coli E423-17; E423-17) of the same substance?
A: >32 µM

Q: And the “Activity (MIC) K. pneumoniae” value (K. pneumoniae E406-17)?
A: >32 µM

Q: And the “Activity (MIC) A. baumannii” value (A. baumannii B28-16)?
A: >32 µM

Q: What about the “Activity (MIC) P. aeruginosa” value (P. aeruginosa E411-17) of the same substance?
A: >32 µM

Q: Which results are given for KRWWQRWK-NH2 [W541]?
A: Activity (MIC) S. aureus (S. aureus USA300 LAC; USA300): >32 µM; Activity (MIC) E.coli (E. coli E423-17; KR-8 series, Table 3): 8 µM; Activity (MIC) K. pneumoniae (K. pneumoniae E406-17): >32 µM; Activity (MIC) A. baumannii (A. baumannii B28-16): >32 µM; Activity (MIC) P. aeruginosa (P. aeruginosa E411-17): >32 µM

Q: Which “Activity (MIC) K. pneumoniae” value (K. pneumoniae E406-17) does the source give for KRWWQWWK-NH2 [W542] here?
A: >32 µM

Q: And the “Activity (MIC) P. aeruginosa” value (P. aeruginosa E411-17)?
A: 4 to 8 µM

Q: With “KWKFGKKLERIGQNVFRAAEKVLPVATGYAQLPATLAGAKQG (listed as Panorpa sp.) [Pvul-cec]” as the substance, how does the “MIC against E. coli” value (E. coli) read?
A: 8 µg/mL

Q: For “LLGDFFRKSK-NH2 (C-terminus assumed) [LL-10]”, which MIC (S. aureus USA300 LAC; USA300) is on record?
A: >64 µM

Q: Which results are given for “LRNLVPRTES-NH2 (C-terminus assumed) [LR-10]”?
A: MIC (S. aureus USA300 LAC; USA300): >64 µM; Antimicrobial activity (MIC) (E. coli E423-17; E423-17): >64 µM

Q: For “NGNLLGGLLRPVLGVVKGLTGGLGKK (Pleurodema thaul) [Thaulin-1]”, which “MIC against E. coli” value (E. coli) is on record?
A: 62.5 µg/mL

Q: With “RKSKEKIGK-NH2 (C-terminus assumed) [RK-9]” as the substance, how does the MIC (S. aureus USA300 LAC; USA300) read?
A: >64 µM

Q: What about the “Antimicrobial activity (MIC)” value (E. coli E423-17; E423-17) of the same substance?
A: >64 µM

Q: With “RWKFGKKLERMGKRIFKATEKGLPVATGVAALARG (Tunga penetrans) [Tpen-cec]” as the substance, how does the “MIC against E. coli” value (E. coli) read?
A: 8 µg/mL

Q: For “RWKIFKKIEKVGQNIRDGIVKAGPAVAVVGQAATI (listed as Bombyx mori) [CM4]”, which “MIC against E. coli” value (E. coli) is on record?
A: 12 µM

Q: With “RWKIFKRIEKVGRNVRDGVIKAGPAVAVLGQAKALGK (listed as Phyllodes eyndhovii) [Peyn-cec]” as the substance, how does the “MIC against E. coli” value (E. coli) read?
A: 8 µg/mL

Q: For “SWLSKTAKKLENSAKKRIAEGIAIAIQGGPR (listed as Anisakis sp.) [Anisaxin-3]”, which “MIC against E. coli” value (E. coli) is on record?
A: 0.5 to 1.0 µM
